{"source": "BindingDB's records for doi:10.1124/jpet.103.049262", "about": "(Sanofi-Synthelabo Research, 2003)", "key": {"[1]": {"target": "Neuronal acetylcholine receptor subunit alpha-4 (Homo sapiens, UniProt P43681)", "sequence (P43681 whole entry)": "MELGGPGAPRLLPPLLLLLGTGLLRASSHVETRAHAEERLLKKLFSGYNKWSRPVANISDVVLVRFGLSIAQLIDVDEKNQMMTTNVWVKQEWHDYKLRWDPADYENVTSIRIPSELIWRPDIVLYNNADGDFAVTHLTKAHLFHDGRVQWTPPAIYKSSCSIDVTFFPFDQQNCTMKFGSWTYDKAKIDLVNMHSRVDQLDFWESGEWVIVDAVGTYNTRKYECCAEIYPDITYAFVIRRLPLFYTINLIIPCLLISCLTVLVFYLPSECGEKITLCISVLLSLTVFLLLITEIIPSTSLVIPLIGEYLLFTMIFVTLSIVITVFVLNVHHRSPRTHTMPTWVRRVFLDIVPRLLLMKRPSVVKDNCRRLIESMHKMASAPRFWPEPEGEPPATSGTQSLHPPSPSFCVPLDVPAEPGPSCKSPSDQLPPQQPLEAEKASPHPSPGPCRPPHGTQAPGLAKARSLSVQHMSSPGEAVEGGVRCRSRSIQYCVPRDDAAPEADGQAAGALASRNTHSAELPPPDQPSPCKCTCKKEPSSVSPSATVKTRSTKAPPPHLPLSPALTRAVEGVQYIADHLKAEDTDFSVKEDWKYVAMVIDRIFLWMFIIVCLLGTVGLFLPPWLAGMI"}, "[2]": {"target": "Acetylcholine receptor subunit alpha (Homo sapiens, UniProt P02708)", "sequence (P02708 as listed by the source)": "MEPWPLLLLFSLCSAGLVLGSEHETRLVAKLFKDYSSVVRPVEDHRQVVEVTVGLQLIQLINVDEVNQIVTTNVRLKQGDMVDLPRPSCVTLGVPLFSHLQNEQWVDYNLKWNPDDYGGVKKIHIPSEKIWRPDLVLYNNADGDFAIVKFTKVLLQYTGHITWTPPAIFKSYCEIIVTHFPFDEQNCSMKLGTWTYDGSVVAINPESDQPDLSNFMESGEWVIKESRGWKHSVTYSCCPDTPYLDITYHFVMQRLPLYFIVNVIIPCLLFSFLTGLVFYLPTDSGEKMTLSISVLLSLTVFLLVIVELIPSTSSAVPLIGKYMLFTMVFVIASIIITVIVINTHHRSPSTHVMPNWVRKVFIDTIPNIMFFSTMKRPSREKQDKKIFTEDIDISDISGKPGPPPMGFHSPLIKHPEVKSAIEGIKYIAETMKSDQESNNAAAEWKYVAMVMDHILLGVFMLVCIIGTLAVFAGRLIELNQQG"}}}
{"smiles": "c1cnc2c(c1)O[C@H]1CCN3CC[C@@]1(C2)C3", "values": [{"measurement": "Ki", "setting": "[1]", "value": 0.036, "unit": "µM"}, {"measurement": "Ki", "setting": "[2]", "value": 6, "unit": "µM"}]}
